Measured values: publication PMC11173647, “Anti-Inflammatory Activity of Pyrazolo[1,5-a]quinazolines” (Molecules, 2024)
Like-named read-outs stand apart in the source and are kept apart here. Blank lines part the entries; values can stand above or below the compound they belong to.

Assays:
[1] = system: LPS-induced NF-κB/AP-1 transcriptional activity in THP-1Blue cells; test: LPS-induced NF-κB/AP-1 reporter (secreted alkaline phosphatase) activity in THP-1Blue cells; format: cell-based, human; conditions: for inhibitory activity in THP-1Blue cells (in words): LPS-induced NF-κB/AP-1 reporter activity; for IC50: THP-1Blue cells, 30 min pretreatment, 250 ng/mL LPS for 24 h, alkaline phosphatase in supernatant, read-out: AP Production IC50
Description: THP-1 cells are a human monocyte cell line that was developed from a monocyte isolated from the peripheral blood of an acute monocytic leukemia patient. This cell line is used as a monocyte/macrophage model in immunology research. The THP-1Blue cells obtained from InvivoGen (San Diego, CA, USA) are THP-1 cells that were stably transfected with a secreted embryonic alkaline phosphatase gene that is under control of a NF-κB/AP-1-inducible promoter. For this study, THP-1Blue cells were cultured at 37 °C in a humidified atmosphere containing 5% CO2 in RPMI 1640 medium (Mediatech Inc., Herndon, VA, USA) supplemented with 10% (v/v) fetal bovine serum (FBS), 100 μg/mL streptomycin, 100 U/mL penicillin, 100 μg/mL phleomycin (Zeocin), and 10 μg/mL blasticidin S (all from Sigma-Aldrich, St. Louis, MO, USA).
To measure the activation of AP-1/NF-κB, the THP-1Blue cells (2 × 10^5 cells/well) were pretreated with the test compounds or dimethyl sulfoxide (DMSO; 1% final concentration) for 30 min, followed by the addition of 250 ng/mL of lipopolysaccharide (LPS; from Escherichia coli strain 0111:B4) for 24 h, and alkaline phosphatase activity was measured in the cell supernatants using the QUANTI-Blue mix (InvivoGen) as the absorbance at 655 nm and compared with positive control samples (LPS). The concentration of the compound that caused 50% inhibition of the NF-κB reporter activity (IC50) was calculated.

THP-1Blue cells = test: Cytotoxicity, CellTiter-Glo Luminescent Cell Viability Assay; format: cell-based, human; conditions: 24 h, concentrations up to 50 µM
Description: Cytotoxicity was analyzed with a CellTiter-Glo Luminescent Cell Viability Assay Kit from Promega (Madison, WI, USA) according to the manufacturer’s protocol. THP-1Blue cells were treated with varying concentrations of the test compounds (up to 50 µM) and cultivated for 24 h. After treatment, the cells were allowed to equilibrate to room temperature for 30 min, the substrate was added, and the samples were analyzed with a Fluoroscan Ascent FL (Thermo Fisher Scientific, Waltham, MA, USA).

Solubility in DMSO = format: physicochemical
JNK3 = target: T1, JNK3 (Homo sapiens, UniProt P53779); test: KINOMEscan ATP site-dependent binding assay; conditions: duplicate
T1 construct: purchased Eurofins Pharma Discovery (KINOMEscan)
T1 sequence (P53779 whole entry): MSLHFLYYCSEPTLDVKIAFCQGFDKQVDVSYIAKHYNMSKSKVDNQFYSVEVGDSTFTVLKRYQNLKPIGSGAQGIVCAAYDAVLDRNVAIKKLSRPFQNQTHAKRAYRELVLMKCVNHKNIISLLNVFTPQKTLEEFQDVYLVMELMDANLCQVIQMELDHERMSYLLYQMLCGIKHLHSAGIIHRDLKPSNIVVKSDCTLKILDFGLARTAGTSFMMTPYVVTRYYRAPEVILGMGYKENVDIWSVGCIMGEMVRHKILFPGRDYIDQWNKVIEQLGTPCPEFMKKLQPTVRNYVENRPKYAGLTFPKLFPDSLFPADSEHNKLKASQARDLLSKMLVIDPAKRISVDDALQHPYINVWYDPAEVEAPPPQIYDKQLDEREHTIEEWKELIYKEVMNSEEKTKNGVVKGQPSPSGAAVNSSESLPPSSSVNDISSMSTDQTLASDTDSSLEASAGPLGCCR
Description: (§1) Binding reactions were performed at room temperature for 1 h, and the fraction of kinase not bound to the test compound was determined by capture with an immobilized affinity ligand and quantified by quantitative polymerase chain reaction. The primary screening at fixed concentrations of the compound was performed in duplicate.

JNK1 = target: T2, JNK1 (Homo sapiens, UniProt P45983); test: KINOMEscan ATP site-dependent binding assay; conditions: duplicate
T2 construct: purchased Eurofins Pharma Discovery (KINOMEscan)
T2 sequence (P45983 whole entry): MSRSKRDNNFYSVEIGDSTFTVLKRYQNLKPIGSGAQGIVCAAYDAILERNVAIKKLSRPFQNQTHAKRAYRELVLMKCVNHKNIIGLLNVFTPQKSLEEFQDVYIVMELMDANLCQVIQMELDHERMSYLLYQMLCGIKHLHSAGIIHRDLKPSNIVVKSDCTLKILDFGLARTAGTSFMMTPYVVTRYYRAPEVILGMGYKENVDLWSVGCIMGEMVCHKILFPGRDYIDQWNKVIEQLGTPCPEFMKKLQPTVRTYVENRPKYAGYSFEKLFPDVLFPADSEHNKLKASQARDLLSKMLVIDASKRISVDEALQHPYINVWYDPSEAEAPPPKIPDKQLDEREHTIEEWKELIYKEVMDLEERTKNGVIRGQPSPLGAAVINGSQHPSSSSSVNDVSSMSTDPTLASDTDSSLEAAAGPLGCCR
Description: as §1

JNK2 = target: T3, JNK2 (Homo sapiens, UniProt P45984); test: KINOMEscan ATP site-dependent binding assay; conditions: duplicate
T3 construct: purchased Eurofins Pharma Discovery (KINOMEscan)
T3 sequence (P45984 whole entry): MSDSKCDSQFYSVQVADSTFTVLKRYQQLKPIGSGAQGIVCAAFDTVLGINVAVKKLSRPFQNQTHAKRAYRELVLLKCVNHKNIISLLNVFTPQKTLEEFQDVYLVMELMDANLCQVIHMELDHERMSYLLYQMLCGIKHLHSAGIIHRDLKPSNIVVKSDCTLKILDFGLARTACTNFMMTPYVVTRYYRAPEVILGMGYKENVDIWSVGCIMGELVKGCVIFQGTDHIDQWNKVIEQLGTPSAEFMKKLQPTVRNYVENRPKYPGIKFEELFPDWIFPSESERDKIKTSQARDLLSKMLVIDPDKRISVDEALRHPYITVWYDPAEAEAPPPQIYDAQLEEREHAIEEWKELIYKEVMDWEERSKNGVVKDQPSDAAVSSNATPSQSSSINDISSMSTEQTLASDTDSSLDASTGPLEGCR
Description: as §1

melting point: > 300 °C
IC50 ([1]; Homo sapiens): 30.1 ± 3.3 µM
Compound: CNc1nc2c(C#N)cnn2c2cc([N+](=O)[O-])ccc12 [42a, 5-(Methylamino)-8-nitropyrazolo[1,5-a]quinazoline-3-carbonitrile]
inhibitory activity in THP-1Blue cells (in words) [1]: moderate activity
Cytotoxicity (THP-1Blue cells): N.T. (no cytotoxicity was found in THP-1Blue cells at concentrations up to 50 µM)

melting point: > 295 °C
Compound: N#Cc1cnn2c1nc(Nc1ccc(N)cc1)c1ccc([N+](=O)[O-])cc12 [42c]

melting point: > 295 °C
Compound: N#Cc1cnn2c1nc(Nc1ccc(N)cc1)c1cc([N+](=O)[O-])ccc12 [42d]

melting point: > 300 °C
Compound: COc1nc2c(C(N)=O)cnn2c2cc(N)ccc12 [46a]

melting point: > 300 °C
Compound: CNc1nc2c(C#N)cnn2c2cc(N)ccc12 [46b]

melting point: > 300 °C
Compound: CNc1nc2c(C(N)=O)cnn2c2cc(N)ccc12 [46c]

melting point: > 300 °C
Compound: CCOC(=O)c1cnn2c1ncc1c(=O)nc[nH]c12 [53a]

melting point: > 300 °C
Compound: O=c1nc[nH]c2c1cnc1ccnn12 [53b]

IC50 ([1]; Homo sapiens): 39.1 µM
IC50 [1]: 34.1 ± 4.1 µM
Compound: COc1ccc2c(c1)-n1ncc(C(=O)NCc3ccccc3)c1NC2 [58c]
Cytotoxicity (THP-1Blue cells): N.T. (no cytotoxicity was found in THP-1Blue cells at concentrations up to 50 µM)

melting point: 198 to 201 °C
Compound: C[S+]([O-])c1ccc(Cn2c(=O)c3ccccc3n3ncc(I)c23)cc1 (stereo not drawn) [compound 9]

melting point: 225 to 226 °C
IC50 ([1]; Homo sapiens): 7.9 ± 1.7 µM
Kd (JNK3): 10.4 ± 1.5 µM
Kd (JNK1): 17 ± 2.1 µM
Kd (JNK2): 21 ± 2.4 µM
Compound: C[S+]([O-])c1ccc(COc2nc3c(C(N)=O)cnn3c3ccccc23)cc1 (stereo not drawn) [compound 16]
Cytotoxicity (THP-1Blue cells): N.T. (no cytotoxicity was found in THP-1Blue cells at concentrations up to 50 µM)

melting point: 176 to 177 °C
Compound: c1ccc(CNc2nc3c(-c4ccsc4)cnn3c3ccccc23)cc1 [compound 22]

melting point: 288 to 290 °C
IC50 ([1]; Homo sapiens): 49.3 ± 4.6 µM
Compound: CN(C)/C=N/C(=O)c1cnn2c1[nH]c(=O)c1ccc(Cl)cc12 [compound 26, (E)-8-Chloro-N-[(dimethylamino)methylene]-5-oxo-4,5-dihydropyrazolo[1,5-a]quinazoline-3-carboxamide]
Cytotoxicity (THP-1Blue cells): N.T. (no cytotoxicity was found in THP-1Blue cells at concentrations up to 50 µM)

melting point: 269 to 271 °C
Compound: CCOC(=O)c1cnn2c1nc(Nc1ccc(N)cc1)c1cc([N+](=O)[O-])ccc12 [compound 40]

melting point: > 300 °C
IC50 ([1]; Homo sapiens): 11.8 ± 2.2 µM
Compound: CNc1nc2c(C(N)=O)cnn2c2cc([N+](=O)[O-])ccc12 [compound 43, 5-(Methylamino)-8-nitropyrazolo[1,5-a]quinazoline-3-carboxamide]
Cytotoxicity (THP-1Blue cells): N.T. (no cytotoxicity was found in THP-1Blue cells at concentrations up to 50 µM)

melting point: > 300 °C
Compound: COc1nc2c(C#N)cnn2c2cc(N)ccc12 [compound 47, 8-amino-5-methoxy-PQ-3-carbonitrile]

melting point: 286 to 288 °C
Compound: Cn1c(=O)c2ccc(N)cc2n2ncc(C#N)c12 [compound 48]

melting point: > 300 °C
Compound: Cn1c(=O)c2ccc(N)cc2n2ncc(C(N)=O)c12 [compound 49]

The remaining lines, values behind:

Compound: 5-{[4-(Methanesulfonyl)phenyl]methoxy}-3-(thiophen-3-yl)pyrazolo[1,5-a]quinazoline [compound 20]
inhibitory activity in THP-1Blue cells (in words) [1]: moderate activity
IC50 [1]: 13.3 ± 2.6 µM
Cytotoxicity (THP-1Blue cells): N.T. (no cytotoxicity was found in THP-1Blue cells at concentrations up to 50 µM)

Compound: CSc1ccc(Cn2c(=O)c3ccccc3n3ncc(C#N)c23)cc1 (hydrate or solvate) [7e]
melting point: 189 to 192 °C

Compound: CSc1ccc(Cn2c(=O)c3ccccc3n3nccc23)cc1 (hydrate or solvate) [7f]
melting point: 137 to 139 °C

Compound: NC(=O)c1cnn2c1nc(OCc1ccc(S(N)(=O)=O)cc1)c1ccc(Cl)cc12 (hydrate or solvate) [23c, 8-Chloro-5-(4-sulfamoylbenzyloxy)pyrazolo[1,5-a]quinazoline-3-carboxamide]
melting point: 177 to 180 °C

Compound: N#Cc1cnn2c1[nH]c(=O)c1ccc([N+](=O)[O-])cc12 [2c]
melting point: 280 to 283 °C

Compound: N#Cc1cnn2c1[nH]c(=O)c1cc([N+](=O)[O-])ccc12 [2d]
melting point: > 295 °C

Compound: CCOC(=O)c1cnn2c1[nH]c(=O)c1ccc([N+](=O)[O-])cc12 [4c]
melting point: 195 to 197 °C

Compound: CCOC(=O)c1cnn2c1[nH]c(=O)c1cc([N+](=O)[O-])ccc12 [4d]
melting point: 217 to 220 °C

Compound: CCOC(=O)c1cnn2c3ccccc3c(=O)n(Cc3ccc(S(N)(=O)=O)cc3)c12 [7c]
melting point: 224 to 226 °C

Compound: COc1nc2c(C(N)=O)cnn2c2ccccc12 [13a, 5-Methoxypyrazolo[1,5-a]quinazoline-3-carboxamide]
melting point: 246 to 247 °C
IC50 ([1]; Homo sapiens): 24.4 ± 3.1 µM
Cytotoxicity (THP-1Blue cells): N.T. (no cytotoxicity was found in THP-1Blue cells at concentrations up to 50 µM)

Compound: NC(=O)c1cnn2c1nc(OCc1ccccc1)c1ccccc12 [13b, 5-(Benzyloxy)pyrazolo[1,5-a]quinazoline-3-carboxamide]
melting point: 208 to 209 °C
IC50 ([1]; Homo sapiens): 4.81 µM
IC50 [1]: 4.8 ± 1.2 µM
solubility in DMSO (Solubility in DMSO): low solubility in DMSO
Cytotoxicity (THP-1Blue cells): N.T. (no cytotoxicity was found in THP-1Blue cells at concentrations up to 50 µM)

Compound: NC(=O)c1cnn2c1nc(OCc1ccccc1Cl)c1ccccc12 [13d]
melting point: 227 to 229 °C

Compound: NC(=O)c1cnn2c1nc(OCc1cccc(Cl)c1)c1ccccc12 [13e]
melting point: 242 to 245 °C

Compound: NC(=O)c1cnn2c1nc(OCc1ccc(Br)cc1)c1ccccc12 [13f]
melting point: 243 to 244 °C

Compound: Cc1ccccc1COc1nc2c(C(N)=O)cnn2c2ccccc12 [13g]
melting point: 226 to 227 °C

Compound: COc1cccc(COc2nc3c(C(N)=O)cnn3c3ccccc23)c1 [13h]
melting point: 210 to 212 °C

Compound: NC(=O)c1cnn2c1nc(OCc1ccc(S(N)(=O)=O)cc1)c1ccccc12 [13i, 5-[(4-Sulfamoylbenzyl)oxy]pyrazolo[1,5-a]quinazoline-3-carboxamide]
melting point: 167 to 168 °C
IC50 ([1]; Homo sapiens): 9.7 ± 2.4 µM
Kd (JNK3): 9 ± 1.2 µM
Kd (JNK1): 10.9 ± 1.4 µM
Kd (JNK2): 18.5 ± 2.3 µM
Cytotoxicity (THP-1Blue cells): N.T. (no cytotoxicity was found in THP-1Blue cells at concentrations up to 50 µM)

Compound: CSc1ccc(Cn2c(=O)c3ccccc3n3ncc(C(N)=O)c23)cc1 [14c]
melting point: 276 to 279 °C

Compound: c1ccc(COc2nc3c(-c4ccsc4)cnn3c3ccccc23)cc1 [21a]
melting point: 179 to 181 °C

Compound: Nc1ccccc1COc1nc2c(-c3ccsc3)cnn2c2ccccc12 [21b]
melting point: 125 to 126 °C

Compound: COc1nc2c(C(N)=O)cnn2c2cc(Cl)ccc12 [23a, 8-Chloro-5-methoxypyrazolo[1,5-a]quinazoline-3-carboxamide]
melting point: 288 to 290 °C
IC50 ([1]; Homo sapiens): 7.9 ± 1.6 µM
Cytotoxicity (THP-1Blue cells): N.T. (no cytotoxicity was found in THP-1Blue cells at concentrations up to 50 µM)

Compound: NC(=O)c1cnn2c1nc(OCc1ccc(S(N)(=O)=O)cc1)c1ccc(Cl)cc12 [23c, 8-Chloro-5-(4-sulfamoylbenzyloxy)pyrazolo[1,5-a]quinazoline-3-carboxamide]
IC50 ([1]; Homo sapiens): 12.2 ± 2.1 µM
Cytotoxicity (THP-1Blue cells): N.T. (no cytotoxicity was found in THP-1Blue cells at concentrations up to 50 µM)

Compound: COc1nc2c(C(N)=O)cnn2c2cc([N+](=O)[O-])ccc12 [33a, 5-Methoxy-8-nitropyrazolo[1,5-a]quinazoline-3-carboxamide]
IC50 ([1]; Homo sapiens): 14.1 ± 2.9 µM
Cytotoxicity (THP-1Blue cells): N.T. (no cytotoxicity was found in THP-1Blue cells at concentrations up to 50 µM)

Compound: COc1nc2c(C(N)=O)cnn2c2ccc([N+](=O)[O-])cc12 [33b, 5-Methoxy-7-nitropyrazolo[1,5-a]quinazoline-3-carboxamide]
melting point: 269 to 271 °C
IC50 ([1]; Homo sapiens): 18.2 ± 2.5 µM
Cytotoxicity (THP-1Blue cells): N.T. (no cytotoxicity was found in THP-1Blue cells at concentrations up to 50 µM)
